US4372970A, “Benzofuran acetic acid esters and their arthropocidal compositions” (Shell Internationale Research Maatschappij B.V., priority 1979, dated 1983)

Experiments:
insects = conditions: about times that of natural pyrethrum; cited from earlier work
[1] = tested on: lettuce, cucumber, dwarf French beans, tomato or broad bean; assay: Phytotoxicity on foliage; assay type: in vivo; conditions: 100 p.p.m. on foliage
Excerpt: Phytotoxicity is an important feature when the insecticide is applied to foliage.

Row | SMILES | activity relative to natural pyrethrum (insects) | phytotoxicity [1]
1 | CC(C)=CC1C(C(=O)OCc2coc(Cc3ccccc3)c2)C1(C)C (centres unmarked) [Resmethrin, 5-benzyl-3-furylmethylchrysanthemumate] | about 20 times | –
2 | CC(C)C(C(=O)OC(C#N)c1cccc(Oc2ccccc2)c1)c1ccc(Cl)cc1 (stereo not drawn) [fenvalerate, α-cyano-3-phenoxy-benzyl 2-(4-chlorophenyl)-3-methylbutyrate] | – | phytotoxicity was observed
